Tests used:
Assay type in all cases: cell-based, human
HuH-7 cells = test: Growth inhibitory effect on cancer cells (WST assay), Example 2.3; settings: for IC50: HuH-7 cells, WST assay, concentrations 0-50 μM, control 0.1% DMSO; for IC50 compared with IC-2: comparison with IC-2
Experimental: HuH-7 cells, a human liver cancer cell line, were cultured on 10-cm cell culture dishes (TPP Techno Plastic Products AG, Trasadingen, Switzerland) by using DMEM under conditions at 5% CO2, 37° C., and 100% humidity. When the cells were 70 to 90% confluent, 200 μL of 0.25% Trypsin/1 mM EDTA solution, which had been prepared by diluting the stock solution 10-fold with PBS (−), was added to detach the cells. Then, the cells were centrifuged at 1000 rpm for 3 min at room temperature. The cells recovered were subcultured at a 1:4 split ratio.
First, 70 to 90% confluent HuH-7 cells were harvested and seeded (n=3) at 5×10^3 cells/well of a 96-well plate (TPP). After 24 h, each compound was added to the cells and the mixture was cultured at 37° C. The concentrations of each compound were 0, 10, 20, 30, 40, and 50 μM. For IC-2-506-1, however, the concentrations used were 0, 10, 20, 25, 30, 40, and 50 μM. Each control sample (0 μM) used was 0.1% DMSO, a solvent for each compound.
Next, 0, 24, 48, and 96 h after the compound treatment, 100 μIL of DMEM-diluted 10% Cell Counting Kit-8 (DOJINDO LABORATORIES, Kumamoto) was added. The mixture was incubated at 37° C. for 60 min and its absorbance (at a measurement wavelength of 450 nm/control wavelength of 600 nm) was measured by using a Sunrise Rainbow RC (Tecan Group Ltd., Mannedorf, Switzerland). Absorbance for the cells alone was calculated by subtracting, from the reading obtained, absorbance for 10% Cell Counting Kit-8 alone.
The “*” in figures indicates a significant difference of p<0.05 between 0.1% DMSO and each compound; and the “**” indicates a significant difference of p<0.01 (the same applies to all the figures in Examples).

LX-2 cells = test: Anti-fibrosis effect, summary statements on Example 3 (marker not specified); settings: for anti-fibrosis effect compared with IC-2, equal or higher concentration: concentration equal to or higher than that of IC-2
Text: α-Smooth muscle actin (α-SMA), a fibrosis marker, was used as an indicator, and RNA was collected from LX-2 cells treated with each low-molecular-weight compound. Next, an inhibitory effect on fibrosis was examined by real-time RT-PCR.
In addition, instead of α-SMA, another fibrosis marker collagen, type I, alpha 1 (COL1A1) was used as an indicator, and substantially the same protocol was repeated. The concentrations of each compound used were as described in FIG. 34. Each control sample used was 0.1% DMSO, a solvent for each compound. Here, COL1A1 primers used were 5′-CCT CCA GGG CTC CAA CGA G-3′ and 5′-TCAATCACTGTCTTGCCCCA-3′. The annealing was performed at 58° C. for 5 sec. The measurement results were obtained by dividing the calculated value for the COL1A1 gene by the calculated value for the GAPDH gene.

Wnt/β-catenin signaling [1] = test: Inhibitory effect on Wnt/β-catenin signaling in liver stellate cells (LX-2, TCF4 luciferase); settings: concentration equal to or lower than that of IC-2
Experimental: While each compound was added at concentrations where the cell growth of fibrosis-causing liver stellate LX-2 cells was reduced to about 50 to 80%, Wnt/β-catenin signaling activity was measured. […] The concentrations of the respective compounds were as described in FIG. 41. Each control sample used was 0.1% DMSO, a solvent for each compound.
LX-2 cells, which were cultured and maintained by using 10% FBS/DMEM, were harvested and seeded (n=3) in 1% FBS/DMEM at 4.0×10^4 cells per well of a 24-well plate. Next, 25 μL of Opti-MEM (Gibco, Life Technologies Corp., Carlsbad, Calif.) containing 50 ng of pTCF4-CMVpro-GL4.20, having 3 copies of TCF motifs (CCT TTG ATC) upstream of a CMV promoter in a multiple cloning site of pGL4.20 (Promega), and 5 ng of pRL-CMV Vector (Promega) and 25 μL of Opti-MEM containing 0.4 μL of Lipofectamine 2000 (Invitrogen, Life Technologies Corp., Carlsbad, Calif.) were mixed and incubated at room temperature for 20 min. At 20 h after the cell seeding, the mixture was added to each well, so that both reporter plasmids were transiently transfected into the cells. After additional 4 h, 2.5 ng/mL of TGF-β and each compound were added to the cells and the mixture was cultured at 37° C.
At 24 and 48 h after the compound treatment, the culture medium was discarded, and 100 μL of room temperature 5×Passive Lysis Buffer (PLB), which had been diluted 5-fold with MilliQ water, was added to each well. Next, the plate was shaken at room temperature for 15 min and was then frozen at −30° C. overnight. A Luciferase Assay Substrate was diluted with 10 mL of room temperature Luciferase Assay Buffer II to prepare Luciferase Assay Reagent II (LARII). Then, 1 μL of Stop&Glo Substrate was diluted with 49 μL of room temperature Stop&Glo Buffer to prepare Stop&Glo (Promega) in a quantity enough for samples.
The frozen PLB lysate samples were thawed and permeabilized for 15 min. After that, 50 μl aliquots of LARII were dispensed into 3.5 mL test tubes (Sarstedt, AG & Co., Numbrecht, Germany) and 10 μL of each frozen PLB lysate sample was added and mixed well. Subsequently, luminescence was quantified by using a MiniLumat LB 9506 (Berthold Technologies GmbH & Co, Bad Wildbad, Germany) to measure firefly luciferase activity. After the measurement, 50 μL of Stop&Glo was added and mixed well and luminescence was then quantified by using the MiniLumat LB 9506 to determine Renilla luciferase activity. The measurement results were obtained by dividing the firefly luciferase activity by the Renilla luciferase activity.

Wnt/β-catenin signaling [2] = test: Inhibitory effect on Wnt/β-catenin signaling in mesenchymal stem cells (E7-TCF4 luciferase); settings: for inhibitory effect on Wnt/β-catenin signaling in mesenchymal stem cells: E7-TCF4 cells, day 8 after compound addition, compared with control 0.1% DMSO; for inhibitory effect on Wnt/β-catenin signaling pathway in mesenchymal stem cells compared with IC-2: concentration equal to or lower than that of IC-2
Experimental: A pTCF4-CMVpro-GL4.20 plasmid vector, having 3 copies of TCF4 motifs (CCT TTG ATC) upstream of aCMV promoter in a multiple cloning site of pGL4.20 (Promega Corp., Fitchburg, Wis.), was linearized and stably transfected into UE7T-13 cells to prepare E7-TCF4 cells. Also, a pCMVpro-GL4.20 plasmid vector, having a CMV promoter in a multiple cloning site of pGL4.20, was linearized and stably transfected into UE7T-13 cells. The resulting stable cells (E7-CMV cells) were cultured, like UE7T-13 cells, in 10% FBS/DMEM containing 0.25 μg/mL puromycin.
UE7T-13 cells were used to measure Wnt/β-catenin signaling activity. The concentrations of the respective compounds were as described in FIG. 42. Each control sample used was 0.1% DMSO, a solvent for each compound.
First, 70 to 90% confluent E7-TCF4 cells and E7-CMV cells were harvested and seeded (n=3) at 1.6758×10^4 cells/well of a 24-well plate (9.0×10^3 cells/cm^2). One day after that, each compound was added to the cells and the mixture was cultured at 37° C. Day 4 after the compound addition, the culture medium was changed.
At day 1, 4, or 8 after the compound treatment, the culture medium was discarded, and 100 μL of room temperature 5×Passive Lysis Buffer (PLB), which had been diluted 5-fold with MilliQ water, was added to each well. Next, the plate was shaken at room temperature for 15 min and was then frozen at −30° C. overnight. A Luciferase Assay Substrate was diluted with 10 mL of room temperature Luciferase Assay Buffer II to prepare Luciferase Assay Reagent II (LARII). The frozen PLB lysate samples were thawed and permeabilized for 15 min. Then, 10 μL aliquots were added to wells of a 96-well white plate. While 50 μL aliquots of LARII were each added to each well, luminescence was quantified by using a 1420 multi-label counter ARVO MX to determine firefly luciferase activity.

Wnt/β-catenin signaling [3] = test: Inhibitory effect on Wnt/β-catenin signaling in liver cancer cells (HuH7-TCF4 luciferase); settings: concentration equal to or lower than that of IC-2
Experimental: A pTCF4-CMVpro-GL4.20 plasmid vector, which had been constructed by inserting 3 copies of TCF4 motifs (CCT TTG ATC) upstream of a CMV promoter into a multiple cloning site of pGL4.20 (Promega Corp., Fitchburg, Wis.), was linearized and stably transfected into the HuH-7 cells. The resulting stable cells (HuH7-TCF4 cells) and HuH-7 cells were likewise cultured.
While each compound was added at concentrations where the growth of HuH-7 cells was reduced to about 50% or less, Wnt/β-catenin signaling activity was measured. The concentrations of the respective compounds were as described in FIG. 40. Control samples used were 0.1% DMSO, a solvent for each compound, and 0.5 μM 5-FU.
First, 70 to 90% confluent HuH7-TCF4 cells were harvested and seeded (n=3) at 5.0×10^4 cells/well of a 24-well plate (TPP). After 24 h, each compound was added to the cells and the mixture was cultured at 37° C.
At 48 h after the compound treatment, the culture medium was discarded, and 100 μL of room temperature 5×Passive Lysis Buffer (PLB) (Promega Corp., Fitchburg, Wis.), which had been diluted 5-fold with MilliQ water, was added to each well. Next, the plate was shaken at room temperature for 15 min and was then frozen at −30° C. overnight. A Luciferase Assay Substrate was diluted with 10 mL of room temperature Luciferase Assay Buffer II to prepare Luciferase Assay Reagent II (LARII) (Promega). The frozen PLB lysate samples were thawed and permeabilized for 15 min. Then, 10 μL aliquots were added to wells of a 96-well white plate (Corning Inc., Corning, N.Y.). While 50 μL aliquots of LARII were each added to each well, luminescence was quantified by using a 1420 multi-label counter ARVO MX (PerkinElmer Singapore Pte Ltd., Singapore) to determine firefly luciferase activity. Note that a significant difference was evaluated by using (two-tailed) Student's t-test. The “*” in figures indicates a significant difference of p<0.05 between 0.1% DMSO and each compound; and the “**” indicates a significant difference of p<0.01 (the same applies to all the figures in Examples).

Row | SMILES | IC50 (HuH-7 cells) | IC50 compared with IC-2 (HuH-7 cells) | inhibitory effect on Wnt/β-catenin signaling pathway in liver stellate cells compared with IC-2 (Wnt/β-catenin signaling [1]) | anti-fibrosis effect compared with IC-2, equal or higher concentration (LX-2 cells) | inhibitory effect on Wnt/β-catenin signaling pathway in liver cancer cells compared with IC-2 (Wnt/β-catenin signaling [3]) | further results
1 | O=C1C(Cc2ccccc2)N2C(=O)CCN(C(=O)NCc3ccccc3)C2CN1Cc1ccc(Cl)c(Cl)c1 (stereo not drawn) [IC-2-506-3] | 18.3 µM | lower IC50 than IC-2 | more potent inhibitory effect |  |  | anti-fibrosis effect compared with IC-2, lower concentration (LX-2 cells; concentration even lower than that of IC-2): more potent anti-fibrosis effect
2 | O=C1C(Cc2ccccc2)N2C(=O)CCN(c3ccccc3[N+](=O)[O-])C2CN1Cc1cccc2ccccc12 (stereo not drawn) [Compound 7c-NT] | 36.1 µM |  | more potent inhibitory effect |  |  | inhibitory effect on Wnt/β-catenin signaling in mesenchymal stem cells (Wnt/β-catenin signaling [2]): all the compounds except for IC-2-Ar-OMe, 9b, and 7c-NT exhibited a significant inhibitory effect
3 | O=C1C(Cc2ccccc2)N2C(=O)CCN(C(=O)NCc3ccc(O)cc3)C2CN1Cc1cccc2ccccc12 (stereo not drawn) [IC-2-OH] | 33.5 µM |  |  | more potent anti-fibrosis effect | more potent inhibitory effect | 
4 | O=C1C(Cc2ccccc2)N2C(=O)CCN(C(=O)NCc3ccccc3)C2CN1Cc1cccc(Cl)c1Cl (stereo not drawn) [IC-2-506-1] | 14.1 µM | lower IC50 than IC-2 | more potent inhibitory effect | more potent anti-fibrosis effect | more potent inhibitory effect | anti-tumor effect compared with IC-2 (HuH-7 cells; at a concentration lower than that of IC-2): more potent anti-tumor effect
5 | O=C1C(Cc2ccccc2)N2C(=O)CCN(C(=O)NCc3ccccc3)C2CN1Cc1ccc([N+](=O)[O-])cc1 (stereo not drawn) [IC-2-Ar—NO2] |  |  |  |  |  | inhibitory effect on Wnt/β-catenin signaling pathway in mesenchymal stem cells compared with IC-2 (Wnt/β-catenin signaling [2]): more potent inhibitory effect
6 | COc1ccc(CN2CC3N(C(=O)NCc4ccccc4)CCC(=O)N3C(Cc3ccccc3)C2=O)cc1 (stereo not drawn) [IC-2-Ar-OMe] |  |  |  |  |  | inhibitory effect on Wnt/β-catenin signaling in mesenchymal stem cells (Wnt/β-catenin signaling [2]): all the compounds except for IC-2-Ar-OMe, 9b, and 7c-NT exhibited a significant inhibitory effect
7 | O=C1C(Cc2ccccc2)N2C(=O)CCN(C(=O)NCc3ccccc3)C2CN1Cc1ccc(Cl)cc1 (stereo not drawn) [IC-2-Ar—Cl] | 45.1 µM |  |  | more potent anti-fibrosis effect | more potent inhibitory effect | inhibitory effect on Wnt/β-catenin signaling pathway in mesenchymal stem cells compared with IC-2 (Wnt/β-catenin signaling [2]): more potent inhibitory effect
8 | COc1ccc(CNC(=O)N2CCC(=O)N3C(Cc4ccccc4)C(=O)N(Cc4cccc5ccccc45)CC23)cc1 (stereo not drawn) [IC-2-OMe] | 34.9 µM |  |  |  | more potent inhibitory effect | 
9 | COCOc1ccc(CNC(=O)N2CCC(=O)N3C(Cc4ccccc4)C(=O)N(Cc4cccc5ccccc45)CC23)cc1 (stereo not drawn) [IC-2-OMOM] | 20.3 µM | lower IC50 than IC-2 |  |  | more potent inhibitory effect | 
